{"source": "paper PMC6265484", "about": "“Homodimerization regulates an endothelial specific signature of the SOX18 transcription factor” (Nucleic Acids Research, 2018)", "biological_target": "T1, SOX18 (GFP-SOX18 / SOX18-Cherry-myc homodimer) (Homo sapiens, UniProt P35713)", "T1 construct": "full-length human SOX18, synthetic gene; N-terminal GFP-tagged and C-terminal Cherry-cMyc-tagged copies co-expressed cell-free in Leishmania tarentolae extract, not purified; homodimer", "T1 sequence (P35713 1-384)": "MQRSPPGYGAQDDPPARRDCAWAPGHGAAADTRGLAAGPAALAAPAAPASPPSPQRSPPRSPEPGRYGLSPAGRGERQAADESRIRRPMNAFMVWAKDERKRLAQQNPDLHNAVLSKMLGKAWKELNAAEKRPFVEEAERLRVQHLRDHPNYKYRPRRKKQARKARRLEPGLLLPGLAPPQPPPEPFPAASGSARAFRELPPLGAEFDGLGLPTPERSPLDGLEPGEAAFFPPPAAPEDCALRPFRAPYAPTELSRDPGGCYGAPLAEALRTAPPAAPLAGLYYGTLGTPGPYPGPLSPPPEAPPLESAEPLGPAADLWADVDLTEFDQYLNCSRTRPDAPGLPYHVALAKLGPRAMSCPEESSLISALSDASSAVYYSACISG", "experiment": "AlphaScreen disruption of SOX18-SOX18 homodimer in cell-free lysate", "type": "biochemical", "conditions": "protein-protein interaction disruption; no IR5 DNA; buffer B (25 mM HEPES, 50 mM NaCl, 0.001% NP40, 0.001% casein); 1 h; 0.7% DMSO"}
{"smiles": "O=C(O)c1c(O)cccc1CCc1ccc2ccccc2c1", "note": "[Sm4]", "values": [{"measurement": "IC50", "value": "~3000", "unit": "nM"}]}
